Legend:
[1] = Drug distribution in C57BL/6 mouse plasma 10 mg/kg, po and measured at 2 hrs post dose by LC-MS/MS analysis; format: ADME, organism-based
[2] = Volume of distribution at steady state in Wistar rat at 3 mg/kg, iv or 10 mg/kg, po and measured up to 24 hrs by LC-MS/MS analysis; format: ADME, organism-based; conditions: in vivo, read-out: Vdss
[3] = Oral bioavailability in C57BL/6 mouse 10 mg/kg or 5 mg/kg, iv and measured up to 24 hrs by LC-MS/MS analysis; format: ADME, organism-based; conditions: in vivo
[4] = Tmax in Wistar rat at 3 mg/kg, iv or 10 mg/kg, po and measured up to 24 hrs by LC-MS/MS analysis; format: ADME, organism-based; conditions: in vivo
[5] = Drug distribution in Wistar rat adipose tissue 10 mg/kg, po and measured at 2 hrs post dose by LC-MS/MS analysis; format: ADME, organism-based; conditions: read-out: Ct
[6] = Apparent permeability across apical to basolateral side in MDCK cells at 2.5 uM for 90 mins; format: ADME, cell-based, Canis lupus familiaris; conditions: dog
[7] = Drug distribution in C57BL/6 mouse adipose tissue 10 mg/kg, po and measured at 2 hrs post dose by LC-MS/MS analysis; format: ADME, organism-based; conditions: read-out: Ct
[8] = Tmax in C57BL/6 mouse at 5 mg/kg, iv or 10 mg/kg, po and measured up to 24 hrs by LC-MS/MS analysis; format: ADME, organism-based; conditions: in vivo
[9] = Drug distribution in C57BL/6 mouse plasma 10 mg/kg, po and measured at 8 hrs post dose by LC-MS/MS analysis; format: ADME, organism-based
[10] = Drug distribution in Wistar rat liver 10 mg/kg, po and measured at 8 hrs post dose by LC-MS/MS analysis; format: ADME, organism-based; conditions: read-out: Ct
[11] = Clearance in C57BL/6 mouse at 5 mg/kg, iv r 10 mg/kg, po and measured up to 24 hrs by LC-MS/MS analysis; format: ADME, organism-based; conditions: in vivo
[12] = Half life in C57BL/6 mouse at 5 mg/kg, iv or 10 mg/kg, po and measured up to 24 hrs by LC-MS/MS analysis; format: ADME, organism-based; conditions: in vivo
[13] = Drug distribution in C57BL/6 mouse liver 10 mg/kg, po and measured at 2 hrs post dose by LC-MS/MS analysis; format: ADME, organism-based; conditions: read-out: Ct
[14] = Cmax in C57BL/6 mouse at 5 mg/kg, iv or 10 mg/kg, po and measured up to 24 hrs by LC-MS/MS analysis; format: ADME, organism-based; design: dose 5 mg/kg, time < 24 hrs, route iv; conditions: in vivo
[15] = Drug distribution in C57BL/6 mouse liver 10 mg/kg, po and measured at 1 hrs post dose by LC-MS/MS analysis; format: ADME, organism-based; conditions: read-out: Ct
[16] = Plasma protein binding in mouse; format: ADME, cell-free; conditions: read-out: PPB (converted)
[17] = Drug distribution in Wistar rat liver 10 mg/kg, po and measured at 1 hrs post dose by LC-MS/MS analysis; format: ADME, organism-based; conditions: read-out: Ct
[18] = Metabolic stability in mouse liver microsomes assessed as parent compound remaining at 1 uM and measured at 30 mins by LC-MS/MS analysis; format: ADME, Microsome; conditions: read-out: Stability
[19] = AUC in C57BL/6 mouse at 5 mg/kg, iv or 10 mg/kg, po and measured up to 24 hrs by LC-MS/MS analysis; format: ADME, organism-based; design: time < 24 hrs, dose 5 mg/kg, route iv; conditions: in vivo
[20] = Drug distribution in C57BL/6 mouse adipose tissue 10 mg/kg, po and measured at 8 hrs post dose by LC-MS/MS analysis; format: ADME, organism-based; conditions: read-out: Ct
[21] = Volume of distribution at steady state in C57BL/6 mouse at 5 mg/kg, iv or 10 mg/kg, po and measured up to 24 hrs by LC-MS/MS analysis; format: ADME, organism-based; conditions: in vivo, read-out: Vdss
[22] = Drug distribution in C57BL/6 mouse skeletal muscle 10 mg/kg, po and measured at 2 hrs post dose by LC-MS/MS analysis; format: ADME, organism-based, Skeletal muscle tissue; conditions: read-out: Ct
[23] = Drug distribution in Wistar rat adipose tissue 10 mg/kg, po and measured at 8 hrs post dose by LC-MS/MS analysis; format: ADME, organism-based; conditions: read-out: Ct
[24] = Half life in Wistar rat at 3 mg/kg, iv or 10 mg/kg, po and measured up to 24 hrs by LC-MS/MS analysis; format: ADME, organism-based; conditions: in vivo
[25] = Drug distribution in C57BL/6 mouse plasma 10 mg/kg, po and measured at 1 hrs post dose by LC-MS/MS analysis; format: ADME, organism-based
[26] = Drug distribution in C57BL/6 mouse brain 10 mg/kg, po and measured at 8 hrs post dose by LC-MS/MS analysis; format: ADME, organism-based; conditions: read-out: Ct
[27] = Drug distribution in C57BL/6 mouse adipose tissue 10 mg/kg, po and measured at 1 hrs post dose by LC-MS/MS analysis; format: ADME, organism-based; conditions: read-out: Ct
[28] = Drug distribution in C57BL/6 mouse liver 10 mg/kg, po and measured at 8 hrs post dose by LC-MS/MS analysis; format: ADME, organism-based; conditions: read-out: Ct
[29] = Metabolic stability in rat liver microsomes assessed as parent compound remaining at 1 uM and measured at 30 mins by LC-MS/MS analysis; format: ADME, Microsome; conditions: read-out: Stability
[30] = Drug distribution in Wistar rat plasma 10 mg/kg, po and measured at 1 hrs post dose by LC-MS/MS analysis; format: ADME, organism-based
[31] = Drug distribution in Wistar rat plasma 10 mg/kg, po and measured at 8 hrs post dose by LC-MS/MS analysis; format: ADME, organism-based
[32] = Oral bioavailability in Wistar rat at 10 mg/kg or 3 mg/kg, iv and measured up to 24 hrs by LC-MS/MS analysis; format: ADME, organism-based; conditions: in vivo
[33] = Cmax in Wistar rat at 3 mg/kg, iv or 10 mg/kg, po and measured up to 24 hrs by LC-MS/MS analysis; format: ADME, organism-based; design: dose 3 mg/kg, time < 24 hrs, route iv; conditions: in vivo
[34] = Drug distribution in C57BL/6 mouse brain 10 mg/kg, po and measured at 1 hrs post dose by LC-MS/MS analysis; format: ADME, organism-based; conditions: read-out: Ct
[35] = Drug distribution in Wistar rat adipose tissue 10 mg/kg, po and measured at 1 hrs post dose by LC-MS/MS analysis; format: ADME, organism-based; conditions: read-out: Ct
[36] = Drug distribution in C57BL/6 mouse skeletal muscle 10 mg/kg, po and measured at 1 hrs post dose by LC-MS/MS analysis; format: ADME, organism-based, Skeletal muscle tissue; conditions: read-out: Ct
[37] = Clearance in Wistar rat at 3 mg/kg, iv or 10 mg/kg, po and measured up to 24 hrs by LC-MS/MS analysis; format: ADME, organism-based; conditions: in vivo
[38] = AUC in Wistar rat at 3 mg/kg, iv or 10 mg/kg, po and measured up to 24 hrs by LC-MS/MS analysis; format: ADME, organism-based; design: dose 3 mg/kg, time < 24 hrs, route iv; conditions: in vivo
[39] = Drug distribution in C57BL/6 mouse brain 10 mg/kg, po and measured at 2 hrs post dose by LC-MS/MS analysis; format: ADME, organism-based; conditions: read-out: Ct
[40] = Drug distribution in Wistar rat plasma 10 mg/kg, po and measured at 2 hrs post dose by LC-MS/MS analysis; format: ADME, organism-based
[41] = Plasma protein binding in rat; format: ADME, cell-free; conditions: read-out: PPB
[42] = Metabolic stability in human liver microsomes assessed as parent compound remaining at 1 uM and measured at 30 mins by LC-MS/MS analysis; format: ADME, Microsome; conditions: read-out: Stability
hERG (KCNH2) = hERG (KCNH2) (Homo sapiens, UniProt Q12809); assay: Displacement of [3H]astemizole from human ERG expressed in HEK293 cell membrane at 30 uM for 2 hrs by Radiometric displacement assay; format: toxicity; conditions: HEK293 cell membranes that express hERG, probe [3H]astemizole
Sequence of hERG (KCNH2) (Q12809 whole entry): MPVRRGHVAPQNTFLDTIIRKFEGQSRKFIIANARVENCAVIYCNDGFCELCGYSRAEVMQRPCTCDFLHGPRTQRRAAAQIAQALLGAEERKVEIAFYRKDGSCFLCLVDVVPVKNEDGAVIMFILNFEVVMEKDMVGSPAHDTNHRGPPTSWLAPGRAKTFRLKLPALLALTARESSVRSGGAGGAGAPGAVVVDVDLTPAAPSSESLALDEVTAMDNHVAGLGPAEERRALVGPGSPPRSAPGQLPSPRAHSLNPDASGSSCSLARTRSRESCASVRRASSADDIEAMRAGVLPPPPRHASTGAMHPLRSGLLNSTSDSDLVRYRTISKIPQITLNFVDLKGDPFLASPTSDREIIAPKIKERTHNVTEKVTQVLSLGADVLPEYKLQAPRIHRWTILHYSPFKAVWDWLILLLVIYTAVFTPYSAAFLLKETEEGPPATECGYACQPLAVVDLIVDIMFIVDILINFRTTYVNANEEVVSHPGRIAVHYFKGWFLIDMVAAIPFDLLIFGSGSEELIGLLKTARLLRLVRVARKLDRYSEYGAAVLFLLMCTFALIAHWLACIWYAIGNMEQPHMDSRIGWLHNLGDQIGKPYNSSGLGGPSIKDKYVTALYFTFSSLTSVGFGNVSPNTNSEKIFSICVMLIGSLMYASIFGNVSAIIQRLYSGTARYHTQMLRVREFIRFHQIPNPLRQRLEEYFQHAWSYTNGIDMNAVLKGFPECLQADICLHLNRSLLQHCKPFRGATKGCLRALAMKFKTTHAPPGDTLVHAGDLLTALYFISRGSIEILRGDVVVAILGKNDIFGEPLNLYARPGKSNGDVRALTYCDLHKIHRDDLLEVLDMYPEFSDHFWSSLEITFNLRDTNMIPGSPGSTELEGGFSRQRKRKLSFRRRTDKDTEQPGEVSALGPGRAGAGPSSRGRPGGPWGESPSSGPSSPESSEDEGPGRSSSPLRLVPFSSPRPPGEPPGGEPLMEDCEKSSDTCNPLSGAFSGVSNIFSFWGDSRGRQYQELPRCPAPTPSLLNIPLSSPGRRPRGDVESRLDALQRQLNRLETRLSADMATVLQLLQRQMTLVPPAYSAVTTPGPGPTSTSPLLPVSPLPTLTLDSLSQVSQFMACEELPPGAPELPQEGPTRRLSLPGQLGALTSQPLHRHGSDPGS

[43] = Drug distribution in Wistar rat liver 10 mg/kg, po and measured at 2 hrs post dose by LC-MS/MS analysis; format: ADME, organism-based; conditions: read-out: Ct
[44] = Drug distribution in C57BL/6 mouse skeletal muscle 10 mg/kg, po and measured at 8 hrs post dose by LC-MS/MS analysis; format: ADME, organism-based, Skeletal muscle tissue; conditions: read-out: Ct

## O=C(Nc1ccc(N2CCC3(CC2)CC(C(=O)O)C3)nc1)c1nnc(Nc2ccc(F)c(F)c2)o1
[1]
  concentration at 2 h: 1.16 µM
[2]
  Vd: 0.3 L/kg
[3]
  bioavailability: 97%
[4]
  Tmax: 30 min
[5]
  concentration at 2 h: 2.5 µM
[6]
  Papp A→B at 1.5 h, 2.5 µM: 28 nm/s
[7]
  concentration at 2 h: 0.14 µM
[8]
  Tmax: 30 min
[9]
  concentration at 8 h: 0.04 µM
[10]
  concentration at 8 h: 32 µM
[11]
  clearance: 3.48 L/h/kg
[12]
  half-life: 60 min
[13]
  concentration at 2 h: 96 µM
[14]
  Cmax: 4.5 µM
[15]
  concentration at 1 h: 153 µM
[16]
  fraction unbound: 0.02
[17]
  concentration at 1 h: 105 µM
[18]
  remaining at 0.5 h, 1 µM: 94%
[19]
  AUC at 24 h: 2.9 µM·h
[20]
  concentration at 8 h: 0.08 µM
[21]
  Vd: 2.5 L/kg
[22]
  concentration at 2 h: 0.18 µM
[23]
  concentration at 8 h: 0.34 µM
[24]
  half-life: 210 min
[25]
  concentration at 1 h: 1.9 µM
[26]
  concentration at 8 h: 0.11 µM
[27]
  concentration at 1 h: 0.27 µM
[28]
  concentration at 8 h: 5.3 µM
[29]
  remaining at 0.5 h, 1 µM: 92%
[30]
  concentration at 1 h: 37 µM
[31]
  concentration at 8 h: 4 µM
[32]
  bioavailability: 92%
[33]
  Cmax: 57 µM
[34]
  concentration at 1 h: 0.36 µM
[35]
  concentration at 1 h: 1.89 µM
[36]
  concentration at 1 h: 0.17 µM
[37]
  clearance: 0.138 L/h/kg
[38]
  AUC at 24 h: 47 µM·h
[39]
  concentration at 2 h: 0.26 µM
[40]
  concentration at 2 h: 47 µM
[41]
  fraction unbound: 0.01
[42]
  remaining at 0.5 h, 1 µM: 89%
hERG (KCNH2)
  inhibition at 2 h, 30 µM: 22%
[43]
  concentration at 2 h: 72 µM
[44]
  concentration at 8 h: 0.02 µM

Reference: ChEMBL document CHEMBL5143597, “Design and synthesis of novel spirocyclic carboxylic acids as potent and orally bioavailable DGAT1 inhibitors and their biological evaluation” (Bioorg Med Chem Lett, 2022)
